Measurements reported in patent US20030187261A1, “Purine derivatives, process for their preparation and use thereof” (priority 2000, published 2003).
“Also recorded” adds a separate entry of the source. Like-named read-outs stand apart in the source and are kept apart here.

What was measured:
[1] = tested on: T-lymphocyte leukemia Molt3 cell line; experiment: cell growth of Molt3 cell line, flow cytometric cell count; format: cell-based, human; conditions: 96 hours of culture
[2] = tested on: CD34+ hematopoietic progenitors (HPC) from adult bone marrow; experiment: myeloid colony-forming unit (CFU) assay; format: cell-based, human; conditions: for IC50: 14 days, methylcellulose, total colony output; for output of the different types of myeloid colonies (CFU-E, CFU-G and CFU-M): scored differentially
KG1 cells = experiment: apoptosis and cell cycle in KG1 cells (fluorescence microscopy, TUNEL); format: cell-based, human; conditions: for speed of apoptosis induction (microscopic examination): KG1, 6-72 hours of exposure, FIG. 4; for apoptotic cells in G0-G1 phase versus control cells: KG1, TUNEL with EB, FIG. 6
Experimental: Nuclear morphology of the cells was analysed with the fluorochromes Hoechst 33342 (λEx max 346 nm; λEm max 460 nm) (Sigma) prepared in phosphate-buffered saline (PBS at 0.1 mg/ml, added to the culture medium at a final concentration of 2 μg/ml and ethidium bromide (EB) (λEx max 540 nm; λEm max 625 nm) (Sigma) prepared in PBS at 100 μg/ml and added to the culture medium at a final concentration of 2 μg/ml (Lizard, 1995). Hundred cells were counted for each sample and percentage of apoptosis was determined.
Control and novel compound-treated cell cultures were washed with PBS and fixed in […] (pH 7.4) for 15 minutes on ice. After washing in PBS, cells were permeabilized in 70% cold (−20° C.) ethanol and transferred to 4° C. for at least 1 hour. After rehydratation in PBS, cells were labeled with 50 μl/well TUNEL reaction mixture (Boehringer Mannheim). Cells were incubated in this solution at 37° C. for 40 minutes, washed in PBS and resuspended in 500 μl PBS containing 5 μg/ml EB and 0.1% RNAse. After 30 minutes of incubation at 4° C., green (FITC-dUTP) and red (EB-DNA) fluorescence of individual cells was measured on a FACscan flow cytometer (Gorczyca, 1993). Negative control (fixed and permeabilized cells incubated with 50 μl label solution per well without terminal transferase, instead of TUNEL reaction mixture) and positive control (fixed and permeabilized cells incubated with DNase I (100 μg/ml) that induces DNA strand breaks) were included in each experimental set-up.
Flow cytometric detection of apoptosis combined with DNA staining can identify apoptotic cells and simultaneously evaluate their position in the cell cycle. This technique was used to provide infomation about the possible cell cycle specific initiation of apoptosis by the tested compounds. If more than 2% of apoptotic cells were detected by the TUNEL method and the absolute number of acquired apoptotic events exceeded 2000, DNA content was simultaneously measured. Within the apoptotic population, analysis and calculation of the different cell cycle phases was carried out by an iterative curve fitting procedure (ModFit LT cell cycle analysis sofware from Verity software house, INC).
Viable, apoptotic, necrotic (=primary necrosis, not following apoptosis) and secondarily necrotic cells (=late apoptotis, evolving to necrosis) were scored differentially after 6, 12, 24, 48 and 72 hours of exposure to novel compounds. For the three products a different apoptosis-inducing pattern could be observed. Apoptosis induction occurs fast after incubation with P23 and P28 but slower after incubation with P27.
Flow cytometric detection of apoptosis and cell cycle analysis: The induction of apoptotic death of KG1 cells by the novel compounds was confirmed using the TUNEL reaction technique (FIG. 5). […] Incubation of KG1 cell line with P27 results in detectable apoptosis after 24 hours. Percentage of apoptotic cells in G0-G1 increases with time, while the number of apoptotic cells in S+G2/M phases decreases. […] After 6 and 12 hours of incubation the apoptotic population seems mainly to evolve from S phase.

[3] = tested on: myeloid leukemia KG1 cell line; experiment: cell growth of KG1 cell line, flow cytometric cell count; conditions: for IC50: read-out: KGI IC50
Experimental: Cell lines: Human leukemic cell lines were obtained from the American Type Culture Collection (ATCC, Rockville, Md., USA).
Absolute cell number was determined by addition of a known concentration of Fluoresbrite microspheres (FITC) (Polysciences, Inc.). The absolute number of cells per well was calculated as: {(total number of beads added per well)/(number of beads measured)}×(number of measured cells in the gate of interest). All analyses were performed with a FACScan (BD), using CELLQuest software (Becton Dickinson).
The response of the myeloid leukemia KG1 and T-lymphocyte leukemia Molt3 cell lines to the cytostatic effect of the novel compounds was determined using the above-mentioned standardized bead suspension that was used to determine the absolute cell number by flow cytometric (FCM) measurement. Cells were grown in the presence of increasing concentrations of the compounds of the invention.
To determine reversibility of the effects of the new compounds, cells were plated at 10,000 per well and exposed to 0-50 μM of the composed, either continuously for 7 days (control) or only for 6 hours. In the latter case, cells were washed after 6 hours in phosphate-buffered-saline (PBS) (Life Technologies) and reseeded into drug-free medium for 7 days.

| Molecule | IC50 [1] [µM] | IC50 [2] [µM] | output of the different types of myeloid colonies (CFU-E, CFU-G and CFU-M) [2] | time of incubation after which apoptosis was detected (TUNEL) (KG1 cells; KG1) [h] | speed of apoptosis induction (microscopic examination) (KG1 cells) | apoptotic cells in G0-G1 phase versus control cells (KG1 cells) | cell number after 6 hours of exposure, wash and 7 days in drug-free medium ([3]; KG1, compared to control without novel compounds) | IC50 ([3]; 96 hours of culture) [µM] | IC50 ([1]; Homo sapiens, MOLT-3) [µM] | IC50 ([2]; Homo sapiens, 336 h) [µM] | effectiveness on KG1 compared with normal PBMC ([3]; FIG. 2) | IC50 ([3]; Homo sapiens, KG-1, 96 h) [µM] |
| --- | --- | --- | --- | --- | --- | --- | --- | --- | --- | --- | --- | --- |
| 2-(3-aminoethylamino)-6-(3,3-dihydroxybenzyl)amino-9-isopropylpurine [P28] | 14 ± 1.8 | 8.5 | significantly lower colony output | 6 | fast | increase with time after 24 hours | (some) recovery of cell number | 16 ± 1.3 |  |  |  |  |
| CCCCCCNc1nc(NC(CO)c2ccccc2)c2ncn(C(C)C)c2n1 (stereo not drawn) [P23, 2-(hexylamino)-6-(1-phenyl-2-hydroxyethylamino)-9-isopropylpurine] |  |  | significantly lower colony output |  | fast | no significant differences were detected |  |  | 16 ± 0.8 | > 50 | significantly more effective on KG1 than on normal PBMC; also recorded: significantly more effective on KG1 than on normal-PBMC | 8 ± 0.6 |
